{"source": "patent EP0569598A1", "about": "“BENZOXAZINONE DERIVATIVE” (JAPAN TOBACCO INC., priority 1991, dated 1993)", "key": {"[1]": {"biological_target": "T1, human cathepsin G (HCG) (Homo sapiens, UniProt P08311)", "T1 construct": "purchased Cosmo Bio Inc", "T1 sequence (P08311 21-244)": "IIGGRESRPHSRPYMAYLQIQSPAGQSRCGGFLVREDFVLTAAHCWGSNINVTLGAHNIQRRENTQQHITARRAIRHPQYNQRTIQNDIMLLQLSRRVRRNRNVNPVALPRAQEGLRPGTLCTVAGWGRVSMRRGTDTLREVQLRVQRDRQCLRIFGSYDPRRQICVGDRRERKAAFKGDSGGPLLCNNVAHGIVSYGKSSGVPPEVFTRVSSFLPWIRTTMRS", "assay": "HCG inhibitory activity (synthetic substrate, pNA release)", "type": "biochemical", "details": "pH 7.5; HCG 50 nM, substrate 0.5 mM; read-out: IC₅₀ value HCG", "method": "(§1) Activities of the Benzoxazine derivatives of the present invention against human leukocyte elastase (HLE), human sputum elastase (HSE), human cathepsin G (HCG), bovine pancreatic α-chmotrypsin (CYT) and bovine pancreatic trypsin (TRY) were measured by the following method.\n(§2) A test compound was dissolved in DMSO (for fluorometry) and prepared various concentration of the solution. To each concentration was added 2-fold volume of 0.2M Tris-HCl (pH8.6), thereby obtaining a test solution. Synthetic substrate (Funakoshi, L-1335) was dissolved in DMSO and 2-volume of 0.2M Tris-HCl (pH8.6) was added thereto, thereby obtaining a substrate solution. The reaction was performed using a microplate having 96 wells (Nunk). Six-time reactions were repeated for each concentration. One handred and forty µl of an enzyme solution containing 0.2M Tris-HCl (pH8.6), 30 µl of a test solution and 30 µl of a substrate solution per well of the microplate were respectively pre-incubated at 37°C for 10 minutes. After completion of the incubation, the enzyme solution was mixed with the test sample and incubated for 10 minutes and then the substrate solution was added to perform an enzyme reaction. The absorbance of released P-nitroanilide (PNA) was measured at the wave length of 405 nm by means of a microplate reader (MTP-100; CORONA), thereby determining the substrate decomposition. The rate of the substrate decomposition was shown as an average value of 6 repeated reactions. The inhibitory concentration of a test compound relative to the amount of the substrate decomposition in the reaction mixture without a test compound was regarded as an IC₅₀ value. The final concentration of HLE and a synthesized substrate in the reaction mixture were 5.63 nM and 0.2625 mM, respectively.\na) Enzyme obtaining route HCG was obtained from Cosmo Bio Inc.\nThe same method as in the measurement of HLE inhibitory activity was used except that a buffer solution (pH 7.5) was used. The final concentration of HCG and synthetic substrate (Funakoshi, L-1010) in a reaction mixture were 50 nM and 0.5 mM, respectively."}, "[2]": {"biological_target": "T2, human leukocyte elastase (HLE) (Homo sapiens, UniProt P08246)", "T2 construct": "the mixed solution was subjected to density gradient centrifugation, thereby obtaining neutrophiles; from tissue; host or cells: neutrophils from human vein blood (buffy coat)", "T2 sequence (P08246 30-247 limits assumed)": "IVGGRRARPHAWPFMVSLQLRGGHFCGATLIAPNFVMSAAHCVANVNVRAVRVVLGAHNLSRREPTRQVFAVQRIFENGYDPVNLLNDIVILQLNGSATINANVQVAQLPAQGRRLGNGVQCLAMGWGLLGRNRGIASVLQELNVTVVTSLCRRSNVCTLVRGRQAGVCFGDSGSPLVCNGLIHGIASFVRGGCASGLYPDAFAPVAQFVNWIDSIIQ", "assay": "HLE inhibitory activity (synthetic substrate, pNA release, absorbance 405 nm)", "type": "biochemical", "details": "pH 8.6; HLE 5.63 nM, substrate 0.2625 mM; 37°C; read-out: IC₅₀ value HLE", "method": "as §1\nA buffy coat was obtained by subjecting human vein blood to centrifugation. To the buffy coat was added distilled water to make a hypotonic solution, thereby bursting erythrocytes. To the residual blood cell component was added a 33.4% of Conrey 400 solution/9% Ficoll solution (the ratio of the former solution to the latter solution is 10:24), and the mixed solution was subjected to density gradient centrifugation, thereby obtaining neutrophiles. The neutrophile fraction was washed with Hanks' buffer for three times and then cells were recovered and cryopreserved at -80°C until use. The cryopreserved-cells were thawed with warm water at 37°C and suspended in a 9-fold volume of lysis buffer containing 0.1M Tris-HCl (pH7.5), 1M MgCl₂ and 0.1% Brij 35. The suspended cells are destroyed by means of polotoron with ice-cooling. The cell suspension was subjected to centrifugation at 100,000 x g for 1 hour. After removing precipitates, 2-fold volume of a Tris-HCl buffer containing 5 mM Tris-HCl(pH 7.5), 1M NaCl and 1.1% Brij 35 was added to the supernatant, thereby obtaining a crude solution of an enzyme extract. The crude solution was subjected to aprotinine affinity column and extracted with an elution buffer containing […] of glycine-HCl (pH 3.3), 1M NaCl and 0.1% Brij 35, thereby obtaining an active fraction. The obtained active fraction was further subjected to MONO S-ion-exchange chromatography and eluted with 2M NaCl linear gradient. The obtained fraction was dialyzed against 25 mM Tris-HCl (pH8.6) and lyophilized, thereby obtained an enzyme sample.\nas §2"}, "[3]": {"tested_on": "Neutrophile Infiltration of Carrageenin-induced Air Pouch inflammation", "assay": "Suppression of neutrophile infiltration in carrageenin-induced air pouch inflammation", "type": "in vivo, rat", "details": "Dose 10.9 µmol into the air pouch immediately after carrageenin, exudate cells five hours later, SD female rats", "method": "SD female rats in 5 weeks old, having the weight in the range of 110 to 130g were used. A group was regarded to have 5 rats. In the first step, an air pouch was formed by a hypodermic injection of 8 ml of air on the back of a rat under ether anesthesia. Twenty four hours later, to the air pouch was added 5 ml of a saline containing 1% carrageenin (Wako Co., Ltd.). A test compound of the present invention, which has been dissolved in 200 µl DMSO (dimethylsulfoxide), was administered in the air pouch immediately after the carrageenin injection.\nFive hours later, the rat was killed and the blood was released. Then, 5 ml of PBS containing EDTA (ethylenediamine tetraacetate) was injected in the air pouch. The exudate in the air pouch was washed and collected. An aliquot of the exudate was measured by a colter counter and determined the number of cells in the collected exudate.\nThe value subtracting migrating cell number in an experiment performed without carrageenin injection from the migrating cell number in a control experiment administering no the compound of the present invention was regarded as 100, the chemotaxis suppressing activity was determined as the following formula: Cell Infiltration Suppressing Activity (%) [formula] = 100 - S/T x 100 [formula] = 100 - (U - V )/(W - V) x 100 [formula] […]"}, "[4]": {"biological_target": "T3, bovine pancreatic α-chmotrypsin (CYT) (Bos taurus, UniProt P00766)", "T3 construct": "bovine pancreatic α-chmotrypsin (CYT); purchased Sigma Co., Ltd", "assay": "CYT inhibitory activity (synthetic substrate, pNA release)", "type": "biochemical", "details": "pH 8.0; CYT 3.4 nM, substrate 0.273 mM; read-out: IC₅₀ value CYT", "method": "as §1, §2\na) Enzyme obtaining route CYT was obtained from Sigma Co., Ltd.\nSubstantially the same method as used in the measurement of the HLE inhibitory activity was used except that a buffer solution (pH 8.0) was used. The final concentration of CYT and synthetic substrate (Funakoshi, L-1010) in a reaction mixture were 3.4 nM and 0.273 mM, respectively."}}}
{"smiles": "Cc1cccc2nc([C@@H](NC(=O)COC(c3ccccc3)c3ccccn3)C(C)C)oc(=O)c12", "note": "(mixture of isomers) [Compound 3, 5-methyl-2-[2-methyl-1(S)-[[[(±)-α-(2-pyridyl)benzyloxy]acetyl]amino]propyl]-4H-3,1-benzoxazin-4-one]", "values": [{"measurement": "IC50", "setting": "[1]", "result": 58300, "unit": "nM"}, {"measurement": "IC50", "setting": "[2]", "result": 340, "unit": "nM"}, {"measurement": "Rate (%) of Suppressing Cell Infietration", "setting": "[3]", "result": 33.9, "unit": "%"}, {"measurement": "Cell Infiltration", "setting": "[3]; control regarded as 100", "result": 66.1}, {"measurement": "IC50", "setting": "[4]", "result": 2080, "unit": "nM"}]}
